Measured values taken from PubChem BioAssay AID1259411 (Chemical Carcinogenesis Research Information System (CCRIS), 2018).
The source made the active and inactive calls. No rule for the calls is given here.

Test system: rodent carcinogenicity bioassays, tumor incidence
Test: CCRIS carcinogenicity studies
In short: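 NCI-built, expert-reviewed records of carcinogenicity and related test outcomes (mutagenicity, tumor promotion/inhibition) compiled from published and report sources, historical span 1985-2011, not updated.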

In the case of CC(F)(Cl)Cl, the carcinogen call (Species: RAT, Strain/Sex: SPRAGUE-DAWLEY/FEMALE, Route: INHALATION, Dose: 0, 1500, 5000, 20000 PPM 6 HR/D 5 D/WK FOR 104 WK (THE HIGH EXPOSURE LEVEL WAS INCREASED FROM 15000 PPM TO 20000 PPM AFT, Dose: 0, 1500, 5000, 20000 PPM 6 HR/D 5 D/WK FOR 104 WK (THE HIGH EXPOSURE LEVEL WAS INCREASED FROM 15000 PPM TO 20000 PPM AFT) is reported as “inactive; negative” and the carcinogen call (Species: RAT, Strain/Sex: SPRAGUE-DAWLEY/MALE, Route: INHALATION, Dose: 0, 1500, 5000, 20000 PPM 6 HR/D 5 D/WK FOR 104 WK (THE HIGH EXPOSURE LEVEL WAS INCREASED FROM 15000 PPM TO 20000 PPM AFT, Dose: 0, 1500, 5000, 20000 PPM 6 HR/D 5 D/WK FOR 104 WK (THE HIGH EXPOSURE LEVEL WAS INCREASED FROM 15000 PPM TO 20000 PPM AFT, Tumor Site: Type of Lesion: TESTES: INTERSTITIAL CELL ADENOMA) is reported as “active; positive”.

CC(=O)CN(C)N=O was tested, and the carcinogen call (Species: HAMSTER, Strain/Sex: SYRIAN/FEMALE, Route: GAVAGE, Dose: 0, 0.5 MG IN 0.1 ML WATER 2/WK FOR 22 WK FOR A TOTAL DOSE OF 22 MG (STUDY DURATION: 45 WK), Tumor Site: Type of Lesion: LIVER: HEMANGIOSARCOMA, CHOLANGIOCELLULAR CARCINOMA, CHOLANGIOCELLULAR ADENOMA, NASAL MUCOSA: CARCINOMA) was “active; positive”, the carcinogen call (Species: HAMSTER, Strain/Sex: SYRIAN/FEMALE, Route: GAVAGE, Dose: 0, 1 MG IN 0.1 ML WATER 2/WK FOR 11 WK FOR A TOTAL DOSE OF 22 MG (STUDY DURATION: 45 WK), Tumor Site: Type of Lesion: LIVER: TUMOR, NASAL MUCOSA: CARCINOMA) was “active; positive” and the carcinogen call (Species: HAMSTER, Strain/Sex: SYRIAN/FEMALE, Route: GAVAGE, Dose: 0, 2 MG IN 0.2 ML WATER 1/WK FOR 14 WK FOR A TOTAL DOSE OF 28 MG (STUDY DURATION: 17 WK), Tumor Site: Type of Lesion: LIVER: HEPATOCELLULAR ADENOMA, CHOLANGIOCELLULAR CARCINOMA OR ADENOMA, NASAL MUCOSA: CARCINOMA OR ADENOMA) was “active; positive”. For the same compound, the carcinogen call (Species: RAT, Strain/Sex: F344/FEMALE, Route: GAVAGE, Dose: 0, 4 MG/WK FOR A TOTAL DOSE OF 0.5 MMOL (STUDY DURATION: 40 WK), Tumor Site: Type of Lesion: ESOPHAGUS: TUMOR) was “active; positive” and the carcinogen call (Species: RAT, Strain/Sex: F344/MALE, Route: GAVAGE, Dose: 0, 2, 4, 10 MG/WK FOR A TOTAL DOSE OF 0.5, 0.5, 0.9 MMOL (STUDY DURATION: 70 WK), Dose: 0, 2, 4, 10 MG/WK FOR A TOTAL DOSE OF 0.5, 0.5, 0.9 MMOL (STUDY DURATION: 70 WK), Tumor Site: Type of Lesion: ESOPHAGUS: TUMOR) was “active; positive”.

CC(C)OS(C)(=O)=O was tested, and the carcinogen call (Species: MOUSE, Strain/Sex: ICR/FEMALE, Route: SUBCUTANEOUS, Dose: 0, 10 UMOL/MOUSE IN TRIOCTANOIN INTO LEFT FLANK, 1/WK FOR 139 D (STUDY DURATION: 139 D), Tumor Site: Type of Lesion: THYMUS GLAND: LYMPHOMA) was “active; positive”.

With Nc1cccc2ccccc12 the carcinogen call (Species: DOG, Strain/Sex: BEAGLE/FEMALE, Route: ORAL, Dose: 22.0 MG/KG 5/WK) was “inactive; negative” and the carcinogen call (Species: DOG, Strain/Sex: BEAGLE/MALE, Route: ORAL, Dose: 18.4 MG/KG 5/WK) was “inactive; negative”.

In the case of CCC1(c2ccccc2)C(=O)N=C(O)NC1=O (stereo not drawn), the carcinogen call (Species: MOUSE, Route: ORAL, Tumor Site: Type of Lesion: LIVER) is reported as “active; positive”, the carcinogen call (Species: MOUSE, Strain/Sex: C3H/HE/MALE, Route: ORAL, Dose: 0, 85 MG/KG/D IN DIET FOR DURATION OF STUDY (STUDY DURATION: 91 WK)) is reported as “inactive; negative” and the carcinogen call (Species: MOUSE, Strain/Sex: C57BL/MALE, Route: ORAL, Dose: 0, 85 MG/KG/D IN DIET FOR DURATION OF STUDY (STUDY DURATION: 100 WK)) is reported as “inactive; negative”. For the same compound, the carcinogen call (Species: RAT, Route: ORAL, Tumor Site: Type of Lesion: LIVER) was “active; positive” and the carcinogen call (Species: RAT, Strain/Sex: F344/MALE, Route: ORAL, Dose: 0, 8, 30, 125, 500 PPM IN DIET FOR 104 WK (STUDY DURATION: 104 WK), Dose: 0, 8, 30, 125, 500 PPM IN DIET FOR 104 WK (STUDY DURATION: 104 WK)) was “inactive; negative”.

With Nc1ccccc1-c1ccccc1 the carcinogen call (Species: MOUSE, Strain/Sex: B6C3F1/FEMALE, Route: ORAL, Dose: 0, 1000, 3000 PPM IN DIET FOR 103 WK (STUDY DURATION: 103 WK), Dose: 0, 1000, 3000 PPM IN DIET FOR 103 WK (STUDY DURATION: 103 WK), Tumor Site: Type of Lesion: BLOOD VESSELS: HEMANGIOMA, HEMANGIOSARCOMA) was “active; positive”, the carcinogen call (Species: MOUSE, Strain/Sex: B6C3F1/MALE, Route: ORAL, Dose: 0, 1000, 3000 PPM IN DIET FOR 103 WK (STUDY DURATION: 103 WK), Dose: 0, 1000, 3000 PPM IN DIET FOR 103 WK (STUDY DURATION: 103 WK), Tumor Site: Type of Lesion: SPLEEN: HEMANGIOSARCOMA) was “equivocal” and the carcinogen call (Species: RAT, Strain/Sex: F344/FEMALE, Route: ORAL, Dose: 0, 1000, 3000 PPM IN DIET FOR 103 WK (STUDY DURATION: 103 WK), Dose: 0, 1000, 3000 PPM IN DIET FOR 103 WK (STUDY DURATION: 103 WK)) was “inactive; negative”. The carcinogen call (Species: RAT, Strain/Sex: F344/MALE, Route: ORAL, Dose: 0, 1000, 3000 PPM IN DIET FOR 103 WK (STUDY DURATION: 103 WK), Dose: 0, 1000, 3000 PPM IN DIET FOR 103 WK (STUDY DURATION: 103 WK)) was “inactive; negative”.

With CNc1ccc(N)cc1 the carcinogen call (Species: MOUSE, Strain/Sex: B6C3F1/MALE, Route: INTRAPERITONEAL, Dose: 0, 0.15 UMOL/G ONCE IN SODIUM ACETATE BUFFER (STUDY DURATION: 10 MO)) was “inactive; negative”.

c1ccc2c3c4c(cccc4cc2c1)CC3 was tested, and the carcinogen call (Species: MOUSE, Strain/Sex: BLU:HA/FEMALE, Route: INTRAPERITONEAL, Dose: 0, 175 UG/KG/D ON DAYS 1 (1/7 TOTAL DOSE), 8 (2/7 TOTAL DOSE), AND 15 (4/7 TOTAL DOSE) AFTER BIRTH (STUDY DURATION: 9 MO) was “inactive; negative”, the carcinogen call (Species: MOUSE, Strain/Sex: BLU:HA/MALE, Route: INTRAPERITONEAL, Dose: 0, 175 UG/KG/D ON DAYS 1 (1/7 TOTAL DOSE), 8 (2/7 TOTAL DOSE), AND 15 (4/7 TOTAL DOSE) AFTER BIRTH (STUDY DURATION: 9 MO) was “inactive; negative” and the carcinogen call (Species: MOUSE, Strain/Sex: CD-1/FEMALE, Route: INTRAPERITONEAL, Dose: 0, 175, 437.5, 875 UG/KG/D ON DAYS 1 (1/7 TOTAL DOSE), 8 (2/7 TOTAL DOSE), AND 15 (4/7 TOTAL DOSE) AFTER BIRTH (STUDY DU, Dose: 0, 175, 437.5, 875 UG/KG/D ON DAYS 1 (1/7 TOTAL DOSE), 8 (2/7 TOTAL DOSE), AND 15 (4/7 TOTAL DOSE) AFTER BIRTH (STUDY DU) was “inactive; negative”. The carcinogen call (Species: MOUSE, Strain/Sex: CD-1/MALE, Route: INTRAPERITONEAL, Dose: 0, 175, 437.5, 875 UG/KG/D ON DAYS 1 (1/7 TOTAL DOSE), 8 (2/7 TOTAL DOSE), AND 15 (4/7 TOTAL DOSE) AFTER BIRTH (STUDY DU, Dose: 0, 175, 437.5, 875 UG/KG/D ON DAYS 1 (1/7 TOTAL DOSE), 8 (2/7 TOTAL DOSE), AND 15 (4/7 TOTAL DOSE) AFTER BIRTH (STUDY DU, Tumor Site: Type of Lesion: LUNG: ADENOMA OR ADENOCARCINOMA) was “active; positive”.

In the case of ClCc1cccnc1, the carcinogen call (Species: MOUSE, Strain/Sex: B6C3F1/FEMALE, Route: GAVAGE, Dose: 0, 100, 200 MG/KG, Dose: 0, 100, 200 MG/KG, Tumor Site: Type of Lesion: STOMACH: SQUAMOUS CELL PAPILLOMA, CARCINOMA) is reported as “active; positive”, the carcinogen call (Species: MOUSE, Strain/Sex: B6C3F1/MALE, Route: GAVAGE, Dose: 0, 100, 200 MG/KG, Dose: 0, 100, 200 MG/KG, Tumor Site: Type of Lesion: STOMACH: SQUAMOUS CELL PAPILLOMA, CARCINOMA) is reported as “active; positive” and the carcinogen call (Species: RAT, Strain/Sex: F344/FEMALE, Route: GAVAGE, Dose: 0, 75, 150 MG/KG FOR 83 WK (STUDY DURATION: 104 WK), Dose: 0, 75, 150 MG/KG FOR 83 WK (STUDY DURATION: 104 WK), Tumor Site: Type of Lesion: FORESTOMACH: SQUAMOUS CELL PAPILLOMA) is reported as “equivocal”. The carcinogen call (Species: RAT, Strain/Sex: F344/MALE, Route: GAVAGE, Dose: 0, 75, 150 MG/KG, Dose: 0, 75, 150 MG/KG, Tumor Site: Type of Lesion: STOMACH: SQUAMOUS CELL PAPILLOMA OR CARCINOMA) was “active; positive”.
